Numbers after ± are expanded uncertainties.

The conditions of this data set: for mass density: 298.15 K, 101.33 kPa, Liquid, Pycnometric method; for Glass transition temperature / Normal melting temperature: DTA; for Normal melting temperature: Crystal.

With `CCCCCCCCn1cc[n+](C)c1.O=S(=O)([N-]S(=O)(=O)C(F)(F)F)C(F)(F)F`, the mass density was 1310 ± 20 kg/m3 and the Glass transition temperature is -86.00 ± 2 °C.
Consider `CCCC[n+]1ccc(C)cc1.O=S(=O)([N-]S(=O)(=O)C(F)(F)F)C(F)(F)F`, for which the mass density amounted to 1350 ± 20 kg/m3, the Normal melting temperature is 10.00 ± 2 °C and the Glass transition temperature is -80.00 ± 2 °C.
For the compound `CCCC[n+]1ccc(C)cc1.O=S(=O)([O-])C(F)(F)C(F)(F)C(F)(F)C(F)(F)F`, the Normal melting temperature came out at 70.00 ± 2 °C and the Glass transition temperature is -34.00 ± 2 °C.
Take `CCCC[n+]1ccn(C)c1.O=S(=O)([N-]S(=O)(=O)C(F)(F)F)C(F)(F)F`: the Normal melting temperature was -4.00 ± 2 °C.
As for `CCCCn1cc[n+](C)c1.O=S(=O)([O-])C(F)(F)F` [1-butyl-3-methylimidazolium trifluoromethanesulfonate], the Normal melting temperature came to 15.00 ± 2 °C.
For the compound `CCCC[n+]1ccc(C)cc1.O=S(=O)([O-])C(F)(F)F` [1-butyl-4-methylpyridinium trifluoromethanesulfonate], the mass density worked out at 1170 ± 20 kg/m3, the Normal melting temperature was determined as 38.00 ± 2 °C and the Glass transition temperature is -68.00 ± 2 °C.
For `CCCCCCCCn1cc[n+](C)c1.O=S(=O)([O-])C(F)(F)C(F)(F)C(F)(F)C(F)(F)F` [1-methyl-3-octylimidazolium perfluorobutanesulfonate], the mass density is 1330 ± 20 kg/m3, the Normal melting temperature came to 32.00 ± 2 °C and the Glass transition temperature is -86.00 ± 2 °C.
For `CCCCCCCCn1cc[n+](C)c1.O=S(=O)([O-])C(F)(F)F` [1-octyl-3-methylimidazolium trifluoromethanesulfonate], the mass density is given as 1120 ± 20 kg/m3, the Normal melting temperature was determined as 5.00 ± 2 °C and the Glass transition temperature is -80.00 ± 2 °C.
In the same order, the values of `CCCCCCCCn1cc[n+](C)c1.N#C[N-]C#N` [3-methyl-1-octylimidazolium dicyanamide] are 1000 ± 20 kg/m3, -5.00 ± 2 °C and -89.00 ± 2 °C.

The record behind these values is the NIST ThermoML archive (doi:10.1021/je060096y).
